The results in this text go back to patent US6828320B2, “Heterocyclic compounds” (SmithKline Beecham Corporation, priority 1996, dated 2004).

In assay [1] the target is T1, c-erbB-4 (baculovirus expressed, recombinant intracellular domain) (Homo sapiens, UniProt Q15303).
T1 construct: baculovirus expressed, recombinant constructs of the intracellular domains of c-erbB-2 and c-erbB-4; made in house
The assay is described as follows: Substrate phosphorylation assay, c-erbB-4. It counts as biochemical. As for the experimental part:
(§1) The substrate phosphorylation assays use baculovirus expressed, recombinant constructs of the intracellular domains of c-erbB-2 and c-erbB-4 that are constitutively active and EGFr isolated from solubilised A431 cell membranes. The method measures the ability of the isolated enzymes to catalyse the transfer of the γ-phosphate from ATP onto tyrosine residues in a biotinylated synthetic peptide (Biotin-[…]. […] The reaction is stopped by the addition of EDTA (final concentration 0.15 mM) and a sample is transferred to a streptavidin-coated 96-well plate. The plate is washed and level of phosphotyrosine on the peptide is determined using a Europium-labelled antiphosphotyrosine antibody and quantified with a time-resolved fluorescence technique.

Assay [2] deals with T2, c-erbB-2 (baculovirus expressed, recombinant intracellular domain) (Homo sapiens, UniProt P04626).
T2 construct: baculovirus expressed, recombinant constructs of the intracellular domains of c-erbB-2 and c-erbB-4; made in house
T2 sequence (P04626 676-1255 limits assumed): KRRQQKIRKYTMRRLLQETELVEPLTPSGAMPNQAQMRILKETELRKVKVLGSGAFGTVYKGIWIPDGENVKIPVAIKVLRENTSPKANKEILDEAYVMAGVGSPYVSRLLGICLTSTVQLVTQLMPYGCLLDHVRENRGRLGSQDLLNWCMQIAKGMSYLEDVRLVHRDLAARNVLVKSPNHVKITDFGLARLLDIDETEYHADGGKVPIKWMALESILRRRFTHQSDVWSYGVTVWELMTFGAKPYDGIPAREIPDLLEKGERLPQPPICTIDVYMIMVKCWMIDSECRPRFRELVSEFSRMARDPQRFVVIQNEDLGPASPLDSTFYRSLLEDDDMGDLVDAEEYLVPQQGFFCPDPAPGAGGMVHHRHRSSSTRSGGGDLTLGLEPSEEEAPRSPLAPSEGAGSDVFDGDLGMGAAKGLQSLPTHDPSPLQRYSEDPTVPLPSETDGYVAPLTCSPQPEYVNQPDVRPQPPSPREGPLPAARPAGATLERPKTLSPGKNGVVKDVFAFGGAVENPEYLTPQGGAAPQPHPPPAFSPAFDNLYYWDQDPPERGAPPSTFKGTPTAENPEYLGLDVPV
Kind of assay: Substrate phosphorylation assay, c-erbB-2. It counts as biochemical. The protocol: as §1

For assay [3], the target named is HB4a cell line transformed by over-expression of c-erbB-2 (Homo sapiens, UniProt P04626). The assay is described as follows: Cell proliferation assay, HB4a erbB-2. It counts as cell-based. As for the experimental part:
The cell proliferation assay uses an immortalised human breast epithelial cell line (HB4a) which has been transformed by over-expression of c-erbB-2. Growth of these cells in low serum is dependent upon the c-erbB-2 tyrosine kinase activity. […] Cells are plated at 3000/ well in 96-well plates in 0.1 ml medium and allowed to attach overnight. test compound is added in 0.1 ml medium, with a final concentration of 0.5% DMSO, and the plates incubated for 4 days at 37° C. The cells are then examined microscopically for evidence of morphological detransformation and cell mass is estimated by staining with methylene blue and measuring the absorbance at 620 nm. […] Activity against a range of naturally occurring EGFr or c-erbB-2 over-expressing human tumour cell lines (BT474-breast, HN5-head and neck, N87-gastric and Calu3-lung) is assessed with selected compounds by the same methodology.

The test system of assay [4] is HB4a cell line transfected with ras. Kind of assay: Cell proliferation assay, HB4a ras. It counts as cell-based, human. Particulars: Homo sapiens, HB4a, 96 h, read-out: Cell Proliferation HB4a ras.
Assay [5] has as its target T3, EGFr isolated from solubilised A431 cell membranes (Homo sapiens, UniProt P00533).
T3 construct: EGFr isolated from solubilised A431 cell membranes; endogenous in cells; host or cells: A431 cell membranes (solubilised)
The assay is described as follows: Substrate phosphorylation assay, EGFr. It counts as biochemical. As for the experimental part:
as §1

The mark [6] stands for this setting: read-out: Substrate Phosphorylation erbB-2.
The mark [7] stands for this setting: 4 days at 37° C., methylene blue staining; read-out: Cell Proliferation HB4a erbB-2.
The mark [8] stands for this setting: 4 days at 37° C., methylene blue staining, general toxicity control.
The mark [9] stands for this setting: 30 minutes, room temperature, ATP and peptide at Km concentrations.

Counter-ions that a name gives are not always drawn. Like-named read-outs stand apart in the source and are kept apart here.

T3 sequence (P00533 25-1210): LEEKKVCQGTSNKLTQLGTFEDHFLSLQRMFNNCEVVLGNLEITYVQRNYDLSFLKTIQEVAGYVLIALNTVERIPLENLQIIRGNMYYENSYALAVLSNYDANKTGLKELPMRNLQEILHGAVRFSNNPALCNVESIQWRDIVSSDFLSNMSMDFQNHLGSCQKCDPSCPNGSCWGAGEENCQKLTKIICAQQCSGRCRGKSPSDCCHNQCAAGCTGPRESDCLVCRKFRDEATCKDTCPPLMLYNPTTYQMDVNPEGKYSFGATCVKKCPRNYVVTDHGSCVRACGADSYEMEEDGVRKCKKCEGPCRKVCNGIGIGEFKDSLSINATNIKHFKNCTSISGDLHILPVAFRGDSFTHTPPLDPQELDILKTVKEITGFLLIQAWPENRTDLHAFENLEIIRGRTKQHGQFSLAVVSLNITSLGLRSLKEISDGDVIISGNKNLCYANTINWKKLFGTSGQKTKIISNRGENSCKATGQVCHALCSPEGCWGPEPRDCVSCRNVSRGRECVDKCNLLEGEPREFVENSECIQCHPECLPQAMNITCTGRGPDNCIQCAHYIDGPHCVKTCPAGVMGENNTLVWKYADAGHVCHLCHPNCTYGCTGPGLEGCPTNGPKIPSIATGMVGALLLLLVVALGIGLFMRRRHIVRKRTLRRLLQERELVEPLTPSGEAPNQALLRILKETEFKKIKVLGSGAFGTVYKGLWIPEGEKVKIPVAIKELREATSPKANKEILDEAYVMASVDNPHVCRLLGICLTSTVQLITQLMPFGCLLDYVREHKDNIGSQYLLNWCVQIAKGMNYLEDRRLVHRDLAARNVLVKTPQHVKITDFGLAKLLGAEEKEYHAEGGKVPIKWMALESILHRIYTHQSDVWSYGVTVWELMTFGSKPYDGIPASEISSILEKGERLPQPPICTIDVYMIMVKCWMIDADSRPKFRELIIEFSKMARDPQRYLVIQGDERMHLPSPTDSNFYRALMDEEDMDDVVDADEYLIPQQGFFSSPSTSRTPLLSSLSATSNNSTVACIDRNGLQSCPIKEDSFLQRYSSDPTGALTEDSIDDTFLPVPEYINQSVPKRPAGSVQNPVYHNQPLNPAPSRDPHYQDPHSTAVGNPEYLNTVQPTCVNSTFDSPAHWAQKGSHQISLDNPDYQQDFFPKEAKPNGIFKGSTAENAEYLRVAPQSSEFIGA
HB4a cell line transformed by over-expression of c-erbB-2, sequence (P04626 whole entry, change not shown): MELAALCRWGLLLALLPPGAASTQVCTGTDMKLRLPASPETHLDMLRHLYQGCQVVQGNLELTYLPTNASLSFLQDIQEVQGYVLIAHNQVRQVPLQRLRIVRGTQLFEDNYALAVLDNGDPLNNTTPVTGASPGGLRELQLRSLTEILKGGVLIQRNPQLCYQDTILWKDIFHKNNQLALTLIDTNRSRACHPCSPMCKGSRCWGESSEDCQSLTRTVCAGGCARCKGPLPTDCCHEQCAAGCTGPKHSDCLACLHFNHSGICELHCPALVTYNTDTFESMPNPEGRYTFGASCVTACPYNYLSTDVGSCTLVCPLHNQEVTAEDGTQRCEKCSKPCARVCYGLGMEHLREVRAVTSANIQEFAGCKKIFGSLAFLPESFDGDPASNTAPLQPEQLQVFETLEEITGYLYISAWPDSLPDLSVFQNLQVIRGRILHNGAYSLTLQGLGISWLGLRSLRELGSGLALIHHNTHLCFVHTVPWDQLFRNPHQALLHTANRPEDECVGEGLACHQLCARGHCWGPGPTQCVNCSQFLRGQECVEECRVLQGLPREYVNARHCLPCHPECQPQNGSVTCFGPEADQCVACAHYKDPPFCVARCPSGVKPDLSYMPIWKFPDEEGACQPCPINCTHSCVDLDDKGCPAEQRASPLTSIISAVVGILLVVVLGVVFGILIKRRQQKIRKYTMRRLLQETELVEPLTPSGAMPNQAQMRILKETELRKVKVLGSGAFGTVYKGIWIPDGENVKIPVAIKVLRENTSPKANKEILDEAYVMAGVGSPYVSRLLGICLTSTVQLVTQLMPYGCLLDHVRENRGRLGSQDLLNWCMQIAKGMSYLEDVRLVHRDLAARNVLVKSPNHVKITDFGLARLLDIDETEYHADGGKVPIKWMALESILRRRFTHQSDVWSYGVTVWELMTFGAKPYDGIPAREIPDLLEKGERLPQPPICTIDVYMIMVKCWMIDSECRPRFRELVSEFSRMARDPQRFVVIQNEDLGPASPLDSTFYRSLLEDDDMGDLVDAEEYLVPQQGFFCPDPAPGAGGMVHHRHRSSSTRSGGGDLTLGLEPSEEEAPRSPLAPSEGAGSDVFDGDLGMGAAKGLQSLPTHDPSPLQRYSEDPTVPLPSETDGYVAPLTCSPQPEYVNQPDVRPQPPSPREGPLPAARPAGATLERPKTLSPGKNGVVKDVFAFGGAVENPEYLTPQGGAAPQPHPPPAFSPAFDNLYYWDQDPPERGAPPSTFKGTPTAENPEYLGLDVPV
T1 sequence (Q15303 676-1308 limits assumed): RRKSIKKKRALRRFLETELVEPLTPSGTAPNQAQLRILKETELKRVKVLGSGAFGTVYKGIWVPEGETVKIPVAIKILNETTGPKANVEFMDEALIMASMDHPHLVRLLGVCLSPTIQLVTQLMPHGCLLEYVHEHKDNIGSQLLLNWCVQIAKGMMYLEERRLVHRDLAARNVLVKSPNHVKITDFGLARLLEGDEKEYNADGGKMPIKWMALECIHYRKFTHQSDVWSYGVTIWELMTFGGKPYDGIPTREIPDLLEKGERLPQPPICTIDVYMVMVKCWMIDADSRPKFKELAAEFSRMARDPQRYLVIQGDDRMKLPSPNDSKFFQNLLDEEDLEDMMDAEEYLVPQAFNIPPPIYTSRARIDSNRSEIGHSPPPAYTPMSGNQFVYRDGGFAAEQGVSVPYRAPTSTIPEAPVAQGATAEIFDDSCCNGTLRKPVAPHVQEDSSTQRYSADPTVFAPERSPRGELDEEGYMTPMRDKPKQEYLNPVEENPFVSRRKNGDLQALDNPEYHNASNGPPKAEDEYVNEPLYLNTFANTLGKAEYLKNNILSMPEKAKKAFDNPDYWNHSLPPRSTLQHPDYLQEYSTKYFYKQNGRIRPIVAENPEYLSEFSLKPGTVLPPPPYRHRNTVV

`c1ccc(COc2ccc(Nc3ncnc4ccc(-c5ccco5)cc34)cc2)cc1` [Example 1, (4-Benzyloxy-phenyl)-(6-furan-2-yl-quinazolin-4-yl)-amine]: the IC50 was 2500 nM in assay [1] and 40 nM in assay [2] (setting [6]).
In the case of `c1ccc(COc2ccc(Nc3ncnc4ccc(-c5ccccn5)cc34)cc2)cc1` [Example 3, (4-Benzyloxy-phenyl)-(6-(pyridin-2-yl)-quinazolin-4-yl)-amine], the IC50 stood at 8600 nM in assay [1], 29 nM in assay [2] (setting [6]) and 16000 nM in assay [4] (setting [8]). In assay [3] (setting [7]), the GI50 was found to be 23000 nM.
Consider `c1ccc(COc2ccc(Nc3ncnc4ccc(-c5ncccn5)cc34)cc2)cc1` [Example 4, (4-Benzyloxy-phenyl)-(6-(pyrimidin-2-yl)-quinazolin-4-yl)-amine], for which the results for the IC50 in assay [1], in assay [2] (setting [6]) and in assay [4] (setting [8]) were 6400 nM, 35 nM and 50000 nM, respectively.
Turning to `Cn1nncc1-c1ccc2ncnc(Nc3ccc(OCc4ccccc4)cc3)c2c1` [Example 8, (4-Benzyloxy-phenyl)-(6-(3-methyl-1,2,3-triazol-4-yl)-quinazolin-4-yl)-amine], the IC50 in assay [1] is > 10000 nM; in assay [2] (setting [6]) it was 150 nM.
`O=Cc1ccc(-c2ccc3ncnc(Nc4ccc(OCc5ccccc5)cc4)c3c2)o1` [Example 9, 5-(4-(4-Benzyloxy-phenylamino)-quinazolin-6-yl)-furan-2-carbaldehyde]: the IC50 in assay [1] was determined as 430 nM; in assay [2] (setting [6]), 24 nM; in assay [4] (setting [8]), 5700 nM. The GI50 in assay [3] (setting [7]) came out at 550 nM.
Consider `Cc1nnc(-c2ccc3ncnc(Nc4ccc5c(cnn5Cc5cc(F)cc(F)c5)c4)c3c2)o1` [Example 31, (1-(3,5-Difluoro-benzyl)-1H-indazol-5-yl)-(6-(5-methyl-1,3,4-oxadiazol-2-yl)-quinazolin-4-yl)-amine hydrochloride], for which, in assay [3] (setting [7]), the GI50 was 1100 nM. The IC50 in assay [4] (setting [8]) is > 50000 nM; in assay [5], 9 nM.
As to `c1ccc(COc2ccc(Nc3ncnc4ccc(-c5nnn[nH]5)cc34)cc2)cc1` [Example 40, (4-Benzyloxy-phenyl)-(6-(1H-tetrazol-5-yl)-quinazolin-4-yl)-amine], the IC50 was 970 nM in assay [1], 3 nM in assay [2] (setting [6]) and > 50000 nM in assay [4] (setting [8]). Besides, the GI50 in assay [3] (setting [7]) is > 50000 nM.
As for `Cc1nnc(-c2ccc3ncnc(Nc4ccc5c(cnn5Cc5ccccc5)c4)c3c2)[nH]1` [Example 42, (1-Benzyl-1H-indazol-5-yl)-(6-(5-methyl-1,3,4-triazol-2-yl)-quinazolin-4-yl)-amine], the IC50 in assay [2] (setting [6]) was 7 nM; in assay [4] (setting [8]), 20000 nM. In addition, in assay [3] (setting [7]), the GI50 amounted to 570 nM.
As for `Cc1cc(-c2ccc3ncnc(Nc4ccc(OCc5ccccc5)cc4)c3c2)on1` [Example 47, (4-Benzyloxy-phenyl)-(-6-(3-methylisoxazol-5-yl)-quinazolin-4-yl)-amine hydrochloride], the results for the IC50 in assay [1] and in assay [2] (setting [6]) were 5000 nM and 490 nM, respectively.
As for `CN(CCS(C)(=O)=O)Cc1ccc(-c2ccc3ncnc(Nc4ccc(OCc5ccccc5)cc4)c3c2)o1` [Example 48, (4-Benzyloxy-phenyl)-(6-(5-(((2-methanesulphonyl-ethyl)-methyl-amino)-methyl)-furan-2-yl)-quinazolin-4-yl)-amine], the IC50 in assay [1] came out at 1100 nM; in assay [2] (setting [6]), 38 nM; in assay [4] (setting [8]), 9500 nM. In addition, the GI50 in assay [3] (setting [7]) came out at 80 nM.
With `CS(=O)(=O)NCCNCc1ccc(-c2ccc3ncnc(Nc4ccc(OCc5ccccc5)cc4)c3c2)o1` [Example 49, N-(2-((5-(4-(4-Benzyloxy-phenylamino)-quinazolin-6-yl)-furan-2-ylmethyl)-amino) -ethyl)-methanesulphonamide dihydrochloride], the IC50 in assay [2] turned out to be 33 nM; in assay [4], 3500 nM. Moreover, in assay [3] (read-out: Cell Proliferation HB4a erbB-2; 4 days at 37° C., methylene blue staining), the GI50 came to 470 nM.
Consider `NS(=O)(=O)CCNCc1ccc(-c2ccc3ncnc(Nc4ccc(OCc5ccccc5)cc4)c3c2)o1` [Example 50, 2-((5-(4-(4-Benzyloxy-phenylamino)-quinazolin-6-yl)-furan-2-ylmethyl)-amino)-ethanesulphonic acid amide], for which the IC50 in assay [1] was determined as 100 nM; in assay [2] (setting [6]) it was 12 nM; in assay [4] (setting [8]), 7100 nM. For the same molecule, the GI50 in assay [3] (setting [7]) turned out to be 860 nM.
Regarding `COC(=O)c1ccc(-c2ccc3ncnc(Nc4ccc(OCc5ccccc5)cc4)c3c2)o1` [Example 51, 5-(4-(4-Benzyloxy-phenylamino)-quinazolin-6-yl)-furan-2-carboxylic acid methyl ester], the IC50 in assay [1] is 5800 nM; in assay [2] (setting [6]) it was 20 nM; in assay [4] (setting [8]) it was 21000 nM. For the same molecule, the GI50 in assay [3] (setting [7]) worked out at 38000 nM.
Consider `CS(=O)(=O)CCNC(=O)c1ccc(-c2ccc3ncnc(Nc4ccc(OCc5ccccc5)cc4)c3c2)o1` [Example 53, 5-[4-(4-Benzyloxy-phenylamino)-quinazolin-6-yl]-furan-2-carboxylic acid (2-methanesulphonyl-ethyl)-amide hydrochloride], for which, in assay [3] (setting [7]), the GI50 turned out to be 1800 nM. For the same molecule, the figures for the IC50 in assay [4] (setting [8]) and in assay [5] (setting [9]) were 36000 nM and 13 nM, respectively.
Regarding `CNS(=O)(=O)CCNCc1ccc(-c2ccc3ncnc(Nc4ccc(OCc5ccccc5)cc4)c3c2)o1` [Example 54, 2-((5-(4-(4-Benzyloxy-phenylamino)-quinazolin-6-yl)-furan-2-ylmethyl)-amino)-ethanesulphonic acid methylamide], the IC50 in assay [1] came to 280 nM; in assay [2] (setting [6]) it was 24 nM; in assay [4] (setting [8]) it was 7400 nM. In assay [3] (setting [7]), the GI50 was 140 nM.
The corresponding values for `Cc1noc(-c2ccc3ncnc(Nc4ccc5c(cnn5Cc5ccccc5)c4)c3c2)n1` [Example 55, (1-Benzyl-1H-indazol-5-yl)-(6-(3-methyl-1,2,4-oxadiazol-5-yl)-quinazolin-4-yl)-amine hydrochloride] are 1000 nM, 10 nM, 20000 nM and 2000 nM.
For `Cc1nc(-c2ccc3ncnc(Nc4ccc(OCc5ccccc5)cc4)c3c2)no1` [Example 56, (4-Benzyloxy-phenyl)-(6-(5-methyl-1,2,4-oxadiazol-3-yl)-quinazolin-4-yl)-amine] the same measures were > 10000 nM, 260 nM, > 50000 nM and 1700 nM.
As for `CN(C)CCc1nc(-c2ccc3ncnc(Nc4ccc(OCc5ccccc5)cc4)c3c2)no1` [Example 57, (4-Benzyloxy-phenyl)-(6-(5-(2-dimethylamino-ethyl)-1,2,4-oxadiazol-3-yl)-quinazolin-4-yl)-amine], the IC50 in assay [2] (setting [6]) was determined as 83 nM; in assay [4] (setting [8]), 2700 nM. In assay [3] (setting [7]), the GI50 worked out at 1200 nM.
For `CN(C)Cc1nc(-c2ccc3ncnc(Nc4ccc(OCc5ccccc5)cc4)c3c2)no1` [Example 58, (4-Benzyloxy-phenyl)-(6-(5-(dimethylaminomethyl)-1,2,4-oxadiazol-3-yl)-quinazolin-4-yl)-amine] the same measures were 6 nM, 28000 nM and 8600 nM.
On to `CS(=O)(=O)CCNCc1nc(-c2ccc3ncnc(Nc4ccc5c(cnn5Cc5ccccc5)c4)c3c2)no1` [Example 59, (1-Benzyl-1H-indazol-5-yl)-(6-(5-(((2-methanesulphonyl-ethyl)-amino)-methyl)-1,2,4-oxadiazol-3-yl)-quinazolin-4-yl)-amine], for which the GI50 in assay [3] (setting [7]) was found to be 790 nM. Also, the IC50 turned out to be 11000 nM in assay [4] (setting [8]) and 11 nM in assay [5] (setting [9]).
The corresponding values for `CS(=O)(=O)Cc1nc(-c2ccc3ncnc(Nc4ccc5c(cnn5Cc5ccccc5)c4)c3c2)no1` [Example 60, (1-Benzyl-1H-indazol-5-yl)-(6-(5-methanesulphonylmethyl-1,2,4-oxadiazol-3-yl)-quinazolin-4-yl)-amine] are 540 nM, 50000 nM and 1900 nM.
With `Cc1nc(-c2ccc3ncnc(Nc4ccc5c(cnn5Cc5ccccc5)c4)c3c2)no1` [Example 61], in assay [3] (setting [7]), the GI50 is 500 nM. In addition, the results for the IC50 in assay [4] (setting [8]) and in assay [5] (setting [9]) were 3100 nM and 810 nM, respectively.
Turning to `Cc1nocc1-c1ccc2ncnc(Nc3ccc(OCc4ccccc4)cc3)c2c1` [Example 85, (4-Benzyloxy-phenyl)-(6-(3-methyl-[1,2]oxazol-4-yl)-quinazolin-4-yl)-amine], the IC50 in assay [1] is 9700 nM; in assay [2] (setting [6]), 130 nM; in assay [4] (setting [8]), 2300 nM. Also, the GI50 in assay [3] (setting [7]) came out at 2100 nM.
